pEC50: −log10 of the molar value.
Tested on: HCV replicon
Assay: Replicon based assay of HCV replication inhibition (NPT ELISA)
Type: cell-based, Hepatitis C virus
Details: Hepatitis C virus, replicon based assay of HCV replication inhibition; Table IV; read-out: Activity
Outline: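 Huh-7 cells carrying a bicistronic HCV replicon (neo, EMCV-IRES-driven NS3–NS5B) treated overnight after seeding with usually 6 concentrations, 10 to 0.03 micromolar, for three days at 37° C without G418. Replication read as NPT level by captured ELISA; matched-DMSO wells and interferon alpha as controls.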

SMILES	pEC50
CCCCCCCCOc1ccc(Nc2nc(-c3ccc(CC(=O)O)s3)cs2)cc1C(F)(F)F [compound 849, 2-(5-(2-(3-(trifluoromethyl)-4-(octyloxy)phenylamino)thiazol-4-yl)thiophen-2-yl)acetic acid]	> 6.00
O=C(O)Cc1ccc(-c2csc(Nc3ccc(OCCCC4CCCC4)c(C(F)(F)F)c3)n2)s1 [compound 850, 2-(5-(2-(4-(3-cyclopentylpropoxy)-3-(trifluoromethyl)phenylamino)thiazol-4-yl)thiophen-2-yl)acetic acid]	> 6.00
Cc1ccc(CCCCOc2ccc(Nc3nc(-c4ccc(CC(=O)O)s4)cs3)cc2C(F)(F)F)cc1 [compound 851, 2-(5-(2-(4-(4-p-tolylbutoxy)-3-(trifluoromethyl)phenylamino)thiazol-4-yl)thiophen-2-yl)acetic acid]	> 6.00
Fc1cc(Nc2nc(-c3cccnc3)cs2)ccc1OCCCCc1cccs1 [compound 852, N-(4-(4-(thiophen-2-yl)butoxy)-3-fluorophenyl)-4-(pyridin-3-yl)thiazol-2-amine]	> 6.00
Fc1cc(Nc2nc(-c3cccnc3)cs2)ccc1OCCCc1ccccc1 [compound 853, N-(4-(3-phenylpropoxy)-3-fluorophenyl)-4-(pyridin-3-yl)thiazol-2-amine]	> 6.00
Cc1sc(Nc2ccc(OCCCCc3cccs3)c(F)c2)nc1-c1cccnc1 [compound 854, N-(4-(4-(thiophen-2-yl)butoxy)-3-fluorophenyl)-5-methyl-4-(pyridin-3-yl)thiazol-2-amine]	5.00 to 6.00
Cc1sc(Nc2ccc(OCCCc3ccccc3)c(F)c2)nc1-c1cccnc1 [compound 855, N-(4-(3-phenylpropoxy)-3-fluorophenyl)-5-methyl-4-(pyridin-3-yl)thiazol-2-amine]	< 5.00
Cc1sc(Nc2ccc(OCC3CCCCC3)c(C(F)(F)F)c2)nc1-c1cccnc1 [compound 856, N-(4-(cyclohexylmethoxy)-3-(trifluoromethyl)phenyl)-5-methyl-4-(pyridin-3-yl)thiazol-2-amine]	> 6.00
CCCCCCCCOc1ccc(Nc2nc(-c3ccc(F)cc3)c(N)s2)cc1C(F)(F)F [compound 857, N^2-(3-(trifluoromethyl)-4-(octyloxy)phenyl)-4-(4-fluorophenyl)thiazole-2,5-diamine]	> 6.00
Nc1sc(Nc2ccc(OCc3ccccc3)cc2)nc1-c1ccc(F)cc1 [compound 858, N^2-(4-(benzyloxy)phenyl)-4-(4-fluorophenyl)thiazole-2,5-diamine]	5.00 to 6.00
CCCCCCCCOc1ccc(Nc2nc(C#N)c(N)s2)cc1C(F)(F)F [compound 859, 2-(3-(trifluoromethyl)-4-(octyloxy)phenylamino)-5-aminothiazole-4-carbonitrile]	> 6.00
FC(F)(F)c1cc(Nc2nc(-c3cccnc3)cs2)ccc1OCCCc1ccco1 [compound 860, N-(4-(3-(furan-2-yl)propoxy)-3-(trifluoromethyl)phenyl)-4-(pyridin-3-yl)thiazol-2-amine]	> 6.00
Fc1cc(Nc2nc(-c3cccnc3)cs2)ccc1OCCCc1ccco1 [compound 861, N-(4-(3-(furan-2-yl)propoxy)-3-fluorophenyl)-4-(pyridin-3-yl)thiazol-2-amine]	> 6.00
CCCCCCCCN(C)c1ccc(Nc2nc(-c3cccnc3)c(C)s2)cc1C(F)(F)F [compound 862, 2-(trifluoromethyl)-N^1-methyl-N^4-(5-methyl-4-(pyridin-3-yl)thiazol-2-yl)-N^1-octylbenzene-1,4-diamine]	> 6.00
CCCCCCCN(C)Cc1ccc(Nc2nc(-c3cccnc3)c(C)s2)cc1C(F)(F)F [compound 863]	5.00 to 6.00
FC(F)(F)c1cc(Nc2nc(-c3cccnc3)cs2)ccc1OCCSc1ccccc1 [compound 864, N-(4-(2-(phenylthio)ethoxy)-3-(trifluoromethyl)phenyl)-4-(pyridin-3-yl)thiazol-2-amine]	> 6.00
CCCCCCCCOc1ccc(Nc2nc(-c3cnc(NC(C)=O)[nH]3)cs2)cc1C(F)(F)F [compound 865, N-(5-(2-(3-(trifluoromethyl)-4-(octyloxy)phenylamino)thiazol-4-yl)-1H-imidazol-2-yl)acetamide]	> 6.00

SMILES	pEC50
COc1ncc(-c2csc(Nc3ccc4ccn(Cc5ccc(F)cc5)c4c3)n2)cn1 [compound 866, 1-(4-fluorobenzyl)-N-(4-(2-methoxypyrimidin-5-yl)thiazol-2-yl)-1H-indol-6-amine]	> 6.00
Fc1ccc(Cn2ccc3ccc(Nc4nc(-c5cccnc5)cs4)cc32)cc1 [compound 867, 1-(4-fluorobenzyl)-N-(4-(pyridin-3-yl)thiazol-2-yl)-1H-indol-6-amine]	> 6.00
Fc1ccc(Cn2ccc3ccc(Nc4nc(-c5ccc(F)cc5)cs4)cc32)cc1 [compound 868, 1-(4-fluorobenzyl)-N-(4-(4-fluorophenyl)thiazol-2-yl)-1H-indol-6-amine]	> 6.00
CCCCCCCCNc1ccc(-c2nc(-c3csc(Nc4cccnc4)n3)cs2)cc1C(F)(F)F [compound 869, N-(4-(2-(3-(trifluoromethyl)-4-(octylamino)phenyl)thiazol-4-yl)thiazol-2-yl)pyridin-3-amine]	> 6.00
Fc1ccc(Cn2ccc3cc(Nc4nc(-c5cccnc5)cs4)ccc32)cc1 [compound 870]	> 6.00
Fc1ccc(Cn2ccc3cc(Nc4nc(-c5ccc(F)cc5)cs4)ccc32)cc1 [compound 871, 1-(4-fluorobenzyl)-N-(4-(4-fluorophenyl)thiazol-2-yl)-1H-indol-5-amine]	< 5.00
CCC(C)c1ccc(Nc2nc(-c3cccnc3)cs2)cc1 (stereo not drawn) [compound 872, N-(4-sec-butylphenyl)-4-(pyridin-3-yl)thiazol-2-amine]	5.00 to 6.00
NC(=O)c1ccc(Nc2nc(-c3cccnc3)cs2)cc1 [compound 873, 4-(4-(pyridin-3-yl)thiazol-2-ylamino)benzamide]	< 5.00
FC(F)(F)c1cc(Nc2nc(-c3cccnc3)cs2)cc(C(F)(F)F)c1 [compound 874, N-(3,5-bis(trifluoromethyl)phenyl)-4-(pyridin-3-yl)thiazol-2-amine]	5.00 to 6.00
Fc1ccc(Nc2nc(-c3cccnc3)cs2)cc1C(F)(F)F [compound 875, N-(4-fluoro-3-(trifluoromethyl)phenyl)-4-(pyridin-3-yl)thiazol-2-amine]	5.00 to 6.00
NC(=O)c1cccc(Nc2nc(-c3cccnc3)cs2)c1 [compound 876, 3-(4-(pyridin-3-yl)thiazol-2-ylamino)benzamide]	< 5.00
Cc1cc(OC(F)(F)F)ccc1Nc1nc(-c2cccnc2)cs1 [compound 877, N-(2-methyl-4-(trifluoromethoxy)phenyl)-4-(pyridin-3-yl)thiazol-2-amine]	< 5.00
CC(=O)Nc1ccc(Nc2nc(-c3cccnc3)cs2)cc1 [compound 878, N-(4-(4-(pyridin-3-yl)thiazol-2-ylamino)phenyl)acetamide]	< 5.00
Cc1ccc(Nc2nc(-c3cccnc3)cs2)cc1C(F)(F)F [compound 879, N-(3-(trifluoromethyl)-4-methylphenyl)-4-(pyridin-3-yl)thiazol-2-amine]	> 6.00
N#Cc1ccc(Nc2nc(-c3cccnc3)cs2)cc1 [compound 880, 4-(4-(pyridin-3-yl)thiazol-2-ylamino)benzonitrile]	5.00 to 6.00
FC(F)(F)c1cc(Nc2nc(-c3cccnc3)cs2)ccc1Cl [compound 881, N-(4-chloro-3-(trifluoromethyl)phenyl)-4-(pyridin-3-yl)thiazol-2-amine]	> 6.00

Source: patent US8088806B2 (Achillion Pharmaceuticals, Inc., priority 2005, dated 2012)
